According to publication PMC10127257, “Engineering mutually orthogonal PylRS/tRNA pairs for dual encoding of functional histidine analogues” (Protein Science : A Publication of the Protein Society, 2023):

Biological target: T1, MaPylRS^IFGFF (Methanomethylophilus alvi, UniProt M9SC49, L125I/Y126F/M129G/V168F/Y206F)
T1 construct: gene MMALV_11280; C-terminal 6-His tag; pET29, E. coli BL21(DE3), Ni-NTA
Test: X-ray crystallography, […] Å
Assay type: binding
Details: MgCl2, pH 8; three Mg2+ ions; triethylene glycol in the amino acid pocket

T1 sequence (M9SC49 entry or part of it L125I/Y126F/M129G/V168F/Y206F): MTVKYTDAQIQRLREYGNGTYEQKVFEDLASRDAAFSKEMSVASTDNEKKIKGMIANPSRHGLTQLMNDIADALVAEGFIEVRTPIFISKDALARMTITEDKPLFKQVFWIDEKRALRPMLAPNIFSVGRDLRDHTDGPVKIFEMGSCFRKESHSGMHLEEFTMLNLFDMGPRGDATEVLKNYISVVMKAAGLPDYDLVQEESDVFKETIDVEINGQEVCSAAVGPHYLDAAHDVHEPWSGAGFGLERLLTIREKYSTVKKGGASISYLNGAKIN

**Q.** `Nc1ncnc2c1ncn2[C@@H]1O[C@H](COP(=O)(O)OP(=O)(O)NP(=O)(O)O)[C@@H](O)[C@H]1O` [AMP-PNP] was tested. Which “X-ray crystallography, 1.8 Å” value did it give?
**A.** bound to the nonreactive ATP analogue adenylyl‐imidodiphosphate (AMP‐PNP, PDB: 8C49
